Reference: US20240238249A1, “Lipidic Nano-Pharmaceuticals” (Huxley Health Inc., priority 2022, published 2024)

Key:
[1] = 14C labelled psilocybin, animals; cited from earlier work
[2] = 14C mescaline injected into developing rats; especially in adult animals; cited from earlier work

## CCCCCCCC(=O)Oc1ccc2[nH]cc(CCN(C)C)c2c1
other
  melting point: 48.3 to 50.2 °C

## CN(C)CCc1c[nH]c2cccc(OP(=O)(O)O)c12 [psilocybin]
[1]
  absorption following oral administration: < 50%

## COc1cc(CCN)cc(OC)c1OC [mescaline, 3,4,5-trimethoxyphenethylamine]
[2]
  permeability of the BBB to mescaline: nearly impermeable
